The values below come from US7348034B2, “Plant based formulations for improving skin moisture, texture, and appearance” (Access Business Group International LLC, priority 2005, dated 2008).

Assay [1] has as its system Human HEK001 cells. Nature of the assay: Lipid synthesis, Oil Red O staining. In kind it is cell-based. Also on record: key to Lipids: a “+” sign indicates an increase in synthesis; ++: multiple “+” signs indicating a higher increase in synthesis; +++: multiple “+” signs indicating a higher increase in synthesis; ++++: multiple “+” signs indicating a higher increase in synthesis; a “−” sign indicates decrease in synthesis; −−: multiple “−”signs indicating a higher decrease in synthesis. Particulars: 0.005%, overnight; for Lipids: 0.05%, and 0.5% in media, Oil Red O OD 515 nm. Here is the method:
Human HEK001 cells were plated at 2×10^4/well in 96 well plates and were incubated overnight. The following day, the cells were exposed to: glycine, Cherokee rose hips, grape seed extract, Wolfberry extract, Pickled Ume, Ascorbic acid, Chinese Angelica extract, royal jelly, and α-tocopherol, which were diluted into cell culture media at concentrations of 0.005%, 0.05%, and 0.5%. The cells were then again incubated overnight. The following day, the cells were fixed in 1% formaldehyde. Cellular lipids were then stained with Oil Red O® stain. See Ramirez J L, Castro-Munnozledo F, Kuri-Harusch W. 1992. “Quantitation of adipose conversion and triglycerides by staining intracytoplasmic lipids with Oil Red O.” Histochemistry. 97:493-497. Following staining, the lipid bound stain was extracted with isopropanol. The OD of the extracted stain was read at 515 nm.

The subject of assay [2] is Hs27 human fibroblast / HEK human keratinocyte co-cultures. Nature of the assay: Elastin synthesis in fibroblast/keratinocyte co-cultures (Fastin Elastin kit). In kind it is cell-based. The arrangement: key: a “+” sign indicates an increase in synthesis; ++: multiple “+” signs indicating a higher increase in synthesis; +++: multiple “+” signs indicating a higher increase in synthesis; ++++: multiple “+” signs indicating a higher increase in synthesis; a “−” sign indicates decrease in synthesis; −−: multiple “−”signs indicating a higher decrease in synthesis. Particulars: 10 mg/ml, overnight, elastin in supernatant. Here is the method: Hs27, a human fibroblast cell culture and HEK, a human keratinocyte cell culture, were established in 24 well plates. The cells were exposed to various ingredients of the formulations of the present invention at concentrations of 10 mg/ml. The co-cultures were then incubated overnight. The following day supernatants were collected. The supernatants were analyzed for the presence of elastin using the Fastin Elastin® kit from Biocolor. Liao […]. 2004. “Relationship between collagen fibrils, glycosaminoglycans, and stress relaxation in mitral valve chordae […].” Ann. Biomed. Eng. 32(7):977-983.

Assay [3] deals with MMP-9. Nature of the assay: MMP-9 enzyme activity (Molecular Probes kit). In kind it is biochemical. The arrangement: key: a “+” sign indicates an increase in synthesis; ++: multiple “+” signs indicating a higher increase in synthesis; +++: multiple “+” signs indicating a higher increase in synthesis; ++++: multiple “+” signs indicating a higher increase in synthesis; a “−” sign indicates decrease in synthesis; −−: multiple “−”signs indicating a higher decrease in synthesis. Particulars: samples diluted to 100 μg/ml. The source says:
(§1) Commercially available kits were used for testing the effect of various ingredients used in the formulations of the present invention on the activity of the MMP-1, MMP-9, and elastase. Gould L J, Yager D R, McGeehan G M, Diegelmann R F. 1999. “Method to analyze collagenase and gelatinase activity by fibroblasts in culture.” In Vitro Cell. Dev. Biol. Anim. 35(2):75-79. For MMP-1, a kit from Amersham® was used according to the manufacturer's specifications. For MMP-9 and Elastase, kits from Molecular Probes® were used. The samples were prepared in stock solvent at stock concentrations of 100 mg/ml. The samples were diluted to 100 μg/ml using PBS.

The target of assay [4] is T1, Elastase (Sus scrofa, UniProt P00772).
T1 construct: purchased Molecular Probes
The experiment in a line: Elastase enzyme activity (Molecular Probes kit). In kind it is biochemical. The arrangement: key: a “+” sign indicates an increase in synthesis; ++: multiple “+” signs indicating a higher increase in synthesis; +++: multiple “+” signs indicating a higher increase in synthesis; ++++: multiple “+” signs indicating a higher increase in synthesis; a “−” sign indicates decrease in synthesis; −−: multiple “−”signs indicating a higher decrease in synthesis. Conditions: samples diluted to 100 μg/ml.
Excerpt: as §1

Assay [5] has as its system Hs27 human fibroblast / HEK human keratinocyte co-cultures. Nature of the assay: Pro-collagen synthesis in fibroblast/keratinocyte co-cultures (ELISA). In kind it is cell-based. Also on record: key: a “+” sign indicates an increase in synthesis; ++: multiple “+” signs indicating a higher increase in synthesis; +++: multiple “+” signs indicating a higher increase in synthesis; ++++: multiple “+” signs indicating a higher increase in synthesis; a “−” sign indicates decrease in synthesis; −−: multiple “−”signs indicating a higher decrease in synthesis. Particulars: 10 mg/ml, overnight, pro-collagen in supernatant. The procedure:
Hs27, a human fibroblast cell culture and HEK, a human keratinocyte cell culture, were established in 24 well plates. The cells were exposed to various ingredients used in formulations of the present invention at concentrations of 10 mg/ml. The co-cultures were then incubated overnight. The following day, supernatants were collected. The supernatants were analyzed for the presence of pro-collagen, a soluble precursor of collagen formed by fibroblasts in the process of collagen synthesis. Pro-collagen synthesis was assayed using commercially available ELISA kits. See […], Falabella A, Ochoa S, Zhou […]. “Dermal fibroblasts from venous ulcers are unresponsive to the action of transforming growth factor-beta 1.” J Dermatol Sci. 1997. 16(1):59-66.

For assay [6], the target named is T2, MMP-1 (Homo sapiens, UniProt P03956).
T2 construct: purchased Amersham
T2 sequence (P03956 100-469): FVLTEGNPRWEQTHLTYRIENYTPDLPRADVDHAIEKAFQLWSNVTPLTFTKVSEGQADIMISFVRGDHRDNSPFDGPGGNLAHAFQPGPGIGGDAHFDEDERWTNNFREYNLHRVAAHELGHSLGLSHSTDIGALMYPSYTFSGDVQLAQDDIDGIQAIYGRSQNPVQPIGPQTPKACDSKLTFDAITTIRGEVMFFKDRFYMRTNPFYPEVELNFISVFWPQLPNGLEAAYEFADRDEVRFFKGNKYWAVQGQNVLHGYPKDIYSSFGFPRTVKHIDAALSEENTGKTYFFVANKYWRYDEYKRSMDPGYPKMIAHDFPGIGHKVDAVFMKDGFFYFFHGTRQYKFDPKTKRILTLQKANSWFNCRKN
Nature of the assay: MMP-1 enzyme activity (Amersham kit). Conditions: samples diluted to 100 μg/ml. The arrangement: key: a “+” sign indicates an increase in synthesis; ++: multiple “+” signs indicating a higher increase in synthesis; +++: multiple “+” signs indicating a higher increase in synthesis; ++++: multiple “+” signs indicating a higher increase in synthesis; a “−” sign indicates decrease in synthesis; −−: multiple “−”signs indicating a higher decrease in synthesis. In kind it is biochemical.
Excerpt: as §1

In assay [7] the test system is humans. Conditions: supplementation with high doses; cited from earlier work.
The test system of assay [8] is mouse keratinocytes. Particulars: mouse keratinocytes in vitro; cited from earlier work.
The conditions of assay [9]: daily consumption of tomato paste over ten weeks; cited from earlier work.

T1 sequence (P00772 27-266): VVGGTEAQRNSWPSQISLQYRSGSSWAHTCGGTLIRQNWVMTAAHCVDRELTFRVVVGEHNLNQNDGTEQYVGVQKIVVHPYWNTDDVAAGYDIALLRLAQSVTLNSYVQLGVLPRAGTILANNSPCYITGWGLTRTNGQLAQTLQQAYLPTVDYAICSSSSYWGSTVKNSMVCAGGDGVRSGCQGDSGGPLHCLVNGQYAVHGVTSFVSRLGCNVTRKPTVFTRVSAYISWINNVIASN

For the compound `Cc1c(C)c2c(c(C)c1O)CC[C@@](C)(CCC[C@H](C)CCC[C@H](C)CCCC(C)C)O2` [α-tocopherol], the Lipids result in assay [1] is “+”. In addition, in assay [1] (0.05%, and 0.5%, Oil Red O), the “induction of lipid synthesis” value is recorded as “demonstrated the ability to induce lipid synthesis”. Besides, the Elastin result in assay [2] is “−”. Besides, the MMP-9 entry in [3] was “−”. Besides, in assay [4], the Elastase result was “−”. The Collagen result in [5] is on record as “−”. Also, in assay [6], the MMP-1 entry is listed as “−”.
As for `CC1=C(/C=C/C(C)=C/C=C/C(C)=C/C=C/C=C(C)/C=C/C=C(C)/C=C/C2=C(C)CCCC2(C)C)C(C)(C)CCC1` [beta-carotene], in assay [7], the “protection against UV-induced erythema” value is given as “with high doses of beta-carotene protects against UV-induced”.
Consider `NCC(=O)O` [Glycine], for which the Lipids result in assay [1] is listed as “−”. Moreover, the Elastin result in assay [2] is “−”. For the same compound, the Collagen entry in assay [5] is listed as “+”.
For `O=C1O[C@H]([C@@H](O)CO)C(O)=C1O` [Ascorbic acid], the Lipids entry in assay [1] is listed as “−”. For the same compound, the Elastin entry in assay [2] is “+”. The UVB-induced oxidative damage entry in assay [8] was “shown to reduce UVB-induced oxidative damage in mouse”. In addition, the Collagen result in assay [5] is on record as “++++”.
With `CC(C)=CCC/C(C)=C/C=C/C(C)=C/C=C/C(C)=C/C=C/C=C(C)/C=C/C=C(C)/C=C/C=C(\C)CCC=C(C)C` [Lycopene], the “protection against erythema formation following UV-irradiation” value in assay [9] was “a period of ten weeks provides protection against erythema formation”.
